According to PMC4252796 (Molecular and biochemical parasitology, 2014):

biological target: T1, LmjPEM1 (Leishmania major, UniProt Q4Q5U4); assay: radiometric PEMT assay, 3H-SAM incorporation into total lipids, yeast extract; assay type: biochemical; details: endogenous yeast PE as substrate; 0.1 M TrisHCl pH 7.5, 30°C, 50 min
T1 sequence (Q4Q5U4 1-582): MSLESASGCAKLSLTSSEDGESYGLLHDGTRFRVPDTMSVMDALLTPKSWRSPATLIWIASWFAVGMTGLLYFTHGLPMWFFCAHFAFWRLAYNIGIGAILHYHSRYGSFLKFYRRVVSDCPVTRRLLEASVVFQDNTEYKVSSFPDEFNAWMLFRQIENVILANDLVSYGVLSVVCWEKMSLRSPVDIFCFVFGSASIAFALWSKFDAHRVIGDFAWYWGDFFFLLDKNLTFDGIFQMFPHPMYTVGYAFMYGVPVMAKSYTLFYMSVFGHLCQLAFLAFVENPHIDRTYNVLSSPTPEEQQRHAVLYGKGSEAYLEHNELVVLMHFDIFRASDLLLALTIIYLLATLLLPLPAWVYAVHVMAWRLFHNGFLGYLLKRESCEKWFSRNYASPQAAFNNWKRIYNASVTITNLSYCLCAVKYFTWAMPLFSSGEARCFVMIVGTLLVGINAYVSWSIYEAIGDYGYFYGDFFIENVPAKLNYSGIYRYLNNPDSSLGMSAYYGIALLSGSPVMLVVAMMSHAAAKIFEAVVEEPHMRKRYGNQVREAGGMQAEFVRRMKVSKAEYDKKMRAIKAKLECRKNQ

Row | Compound | % activity at 10 or 100 μM
1 | CCCCCCCCCCCCCCCCCC[N+](C)(C)C [compound 1, octadecyltrimethylammonium bromide] | followed by miltefosine, octadecyltrimethylammonium bromide, and octadecylphosphocholine
2 | CCCCCCCCCCCCCCCC[N+](C)(C)C [compound 2, hexadecyltrimethylammonium bromide] | LmjPEM1 activity was best inhibited by hexadecyltrimethylammonium bromide
3 | C[N+](C)(C)CCO [compound 3, choline] | while choline had a very small effect
4 | CCCCCCCCCCCCCCCCOP(=O)([O-])OCC[N+](C)(C)C [compound 5, miltefosine] | followed by miltefosine, octadecyltrimethylammonium bromide, and octadecylphosphocholine
5 | CCCCCCCCCCCCCCCCCCOP(=O)([O-])OCC[N+](C)(C)C [compound 6, octadecylphosphocholine] | followed by miltefosine, octadecyltrimethylammonium bromide, and octadecylphosphocholine
